Source: US9447087B2, “Galactokinase inhibitors for the treatment and prevention of associated diseases and disorders” (UNIVERSITY OF UTAH RESEARCH FOUNDATION, priority 2011, dated 2016)
pIC50: −log10 of the molar value. In brackets after ≈: the same amount, converted by molar mass.

Assays:
[1] = system: HEK293 cells; experiment: cytotoxicity, Promega CellTiter Glo on HEK293 cells (PubChem ID 2547); assay type: cell-based; conditions: analyzed after 48 hours
Procedure: (§1) The selectivity for these analogs against CDP-ME kinase, another member of the GHMP kinase family, was performed using a bioluminescent Kinase Glo™ assay that detects ATP depletion after kinase reaction (PubChem ID 2506). […] All analogs were also tested for cytotoxicity using Promega CellTiter Glo on HEK293 cells that were treated with compounds and analyzed after 48 hours.

[2] = target: GALK (Homo sapiens (Human), UniProt P51570); experiment: primary qHTS assay for inhibitors of GALK (KinaseGlo ATP depletion); assay type: biochemical; conditions: 5 nM GALK, 35 μM ATP, 1 hr incubation
Procedure: Assay details and protocol: The primary assay monitored ATP depletion using Promega's KinaseGlo™ technology, where ATP levels are measured through luminescence generated from firefly luciferase, a bioluminescent ATP-dependent enzymes. […] This was used as the positive control for the assay. […]

[3] = target: CDP-ME kinase (Escherichia coli (strain K12), UniProt P62615); experiment: selectivity against CDP-ME kinase (bioluminescent Kinase Glo ATP depletion, PubChem ID 2506); assay type: biochemical; conditions: up to 57 μM
Procedure: as §1, with “hours. […] In addition, the ability of these compounds to undergo redox recycling, which may lead to false positive results, was also evaluated using an endpoint colorimetric assay; this assay detects the presence of H2O2 in the kinase reaction buffer (PubChem ID 2502).” for “hours.”

[4] = Solubility in PBS; assay type: physicochemical; conditions: aqueous buffer, pH 7.4, 23° C.

Sequence of GALK (P51570 whole entry): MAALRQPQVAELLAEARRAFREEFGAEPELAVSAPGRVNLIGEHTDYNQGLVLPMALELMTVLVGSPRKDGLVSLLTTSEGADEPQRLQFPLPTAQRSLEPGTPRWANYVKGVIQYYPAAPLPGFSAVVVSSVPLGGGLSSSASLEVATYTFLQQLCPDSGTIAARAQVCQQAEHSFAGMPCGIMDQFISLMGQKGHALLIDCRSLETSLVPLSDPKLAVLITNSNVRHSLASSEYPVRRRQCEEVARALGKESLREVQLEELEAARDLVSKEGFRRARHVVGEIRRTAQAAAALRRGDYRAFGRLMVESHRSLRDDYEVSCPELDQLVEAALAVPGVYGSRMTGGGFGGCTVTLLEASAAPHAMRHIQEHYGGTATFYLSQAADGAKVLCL
Sequence of CDP-ME kinase (P62615 whole entry, looked up): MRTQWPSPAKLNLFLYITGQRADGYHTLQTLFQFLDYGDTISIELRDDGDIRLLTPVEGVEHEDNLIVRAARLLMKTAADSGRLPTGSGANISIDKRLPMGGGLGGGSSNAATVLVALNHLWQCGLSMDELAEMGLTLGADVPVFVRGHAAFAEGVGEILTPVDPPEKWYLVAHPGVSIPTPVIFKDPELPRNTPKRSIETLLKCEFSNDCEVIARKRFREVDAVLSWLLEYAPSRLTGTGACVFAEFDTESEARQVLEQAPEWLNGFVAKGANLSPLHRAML

SMILES	cytotoxic effect on HEK293 cells [1]	pIC50 [2]	activity against CDP-ME kinase [3]	solubility [4] [µg/mL]
Cc1ccc2oc(NC3=NC4(CCCC4)C4=C(CCCC4=O)N3)nc2c1 [Compound 26]	no cytotoxic effect	5.23	–	–
Cc1ccc2nc(NC3=NC4(CCCC4)C4=C(CCCC4=O)N3)oc2c1 [Compound 28]	no cytotoxic effect	4.68	–	–
O=C1CCCC2=C1C1(CCCC1)N=C(Nc1nc3cc(Cl)ccc3o1)N2 [Compound 20]	no cytotoxic effect	5.18	–	–
O=C1CCC2=C1C1(CCCC1)N=C(Nc1nc3ccccc3o1)N2 [Compound 10]	no cytotoxic effect	4.88	–	–
O=C1CCCC2=C1C1(CCC1)N=C(Nc1nc3ccccc3o1)N2 [Compound 3]	no cytotoxic effect	4.78	–	–
O=C1CCCC2=C1C1(CCCC1)N=C(Nc1nc3cc(Br)ccc3o1)N2 [Compound 27]	no cytotoxic effect	5.13	–	–
O=C1CCCC2=C1C1(CCCC1)N=C(Nc1nc3cc4ccccc4cc3o1)N2 [Compound 33]	no cytotoxic effect	4.43	–	–
O=C1CCCC2=C1C1(CCCC1)N=C(Nc1nc3ccccc3o1)N2 [Compound 4]	no cytotoxic effect	–	–	–
CC1(C)CC(=O)C2=C(C1)NC(Nc1nc3ccccc3o1)=NC21CCCC1 [Compound 8]	no cytotoxic effect	5.18	–	–
Cn1c(NC2=NC3(CCCC3)C3=C(CCCC3=O)N2)nc2ccccc21 [Compound 35]	no cytotoxic effect	4.13	–	–
O=C1CC(c2ccccc2)CC2=C1C1(CCCCC1)N=C(Nc1nc3ccccc3o1)N2 (centres unmarked) [Compound 6]	no cytotoxic effect	4.38	–	–
CC1=C(C(=O)Nc2nc3ccccc3s2)C2(CCCC2)N=C(Nc2nc3ccccc3o2)N1 [Compound 95]	–	4.59	–	–
CC1=C(C(=O)N(C)c2ccccc2C)C(c2ccccc2Br)N=C(Nc2nc3ccccc3o2)N1 (centres unmarked) [Compound 83]	–	4.99	–	–
CC1=C(C(=O)Nc2ccc(Cl)cc2)C(c2ccccc2Br)N=C(Nc2nc3ccccc3o2)N1 (centres unmarked) [Compound 77]	–	5.29	–	–
O=C1CCCC2=C1C1(CCSCC1)N=C(Nc1nc3ccccc3o1)N2 [Compound 22]	–	5.98	–	–
COc1ccc(NC(=O)C2=C(C)NC(Nc3nc4ccccc4o3)=NC2c2ccccc2Br)cc1 (centres unmarked) [Compound 81]	–	5.49	–	–
O=C1CCCC2=C1C(c1cccc(Cl)c1)N=C(Nc1nc3ccccc3o1)N2 (centres unmarked) [Compound 37]	–	4.21	–	–
CC1=C(C(=O)Nc2ccon2)C2(CCCC2)N=C(Nc2nc3ccccc3o2)N1 [Compound 94]	–	5.19	–	–
CC1(C)N=C(Nc2nc3ccccc3o2)NC2=C1C(=O)CCC2 [Compound 5]	–	4.49	–	–
CC1=C(C(=O)N(C)C)C(c2ccccc2Br)N=C(Nc2nc3ccccc3o2)N1 (centres unmarked) [Compound 91]	–	4.69	–	–
CNC(=O)C1=C(C)NC(Nc2nc3ccccc3o2)=NC12CCCC2 [Compound 111]	–	4.69	–	–
O=C1CCCC2=C1C1(CCCC1)N=C(Nc1nc3ccccc3o1)N2 [NCGC00187642]	–	–	no activity	2.3 (≈ 6.84 µM)
CC1=C(C(=O)Nc2ccon2)C(c2nn(C)cc2Cl)N=C(Nc2nc3ccccc3o2)N1 (centres unmarked) [Compound 97]	–	5.09	–	–
CNC(=O)C1=C(C)NC(Nc2nc3ccccc3o2)=NC1c1n[nH]cc1Cl (centres unmarked) [Compound 109]	–	4.74	–	–
